Assay results as given in US8318976B2, “Salts, aqueous liquid compositions containing salts of S-(+)-abscisic acid and methods of their preparation” (Valent BioSciences Corporation, priority 2007, dated 2012).
Where two headings read alike, the source gives them in different places.

Tests used:
[1] = literature reports; cited from earlier work
[2] = cited from earlier work; for highest concentration achievable in water: pure water, room / ordinary ambient temperature
[3] = test system: tomato leaf transpiration; assay: Tomato leaf transpiration rate after foliar spray (LI-1600 porometer); assay type: in vivo, Tomato (variety: Rutgers); conditions: for Transpiration rate (% of control), 3-Day Average: average of days 1-3; for Transpiration rate (% of control), Days after treatment 1: day 1; for Transpiration rate (% of control), Days after treatment 2: day 2; for Transpiration rate (% of control), Days after treatment 3: day 3
Experimental: Preparation of plant specimens for use in the treatment studies of the EXAMPLES that follow was carried out as follows. Tomato (variety: Rutgers) seeds were sown in an 18-cell flat filled with Promix PGX (available from Premier Horticulture Inc., Quakertown Pa.) and grown for 3 weeks to allow for germination and initial growth. Plants were then transplanted into pots (18 cm in diameter and 18 cm in height), filled with Promix BX (available from Premier Horticulture Inc., Quakertown Pa.), and grown for one or two more weeks before treatment, depending on temperature and available light. Plants received daily irrigation and weekly fertilizer (1 g/L all purpose fertilizer 20-20-20, available from The Scotts Company, Marysville, Ohio).
All treatment solutions were made up with distilled water. The (S)-(+)-abscisic acid (95% active ingredient) is available from Lomon BioTechnology Co., Ltd. (Shichuan, China). Twenty L of a 250 ppm solution of (S)-(+)-abscisic acid was prepared and stored in the dark at 20-25° C. This same 250-ppm (S)-(+)-abscisic acid solution was used as a control for all studies to eliminate the possibility of applying an incorrect concentration.
All experiments were conducted using a randomized complete block experimental design. Solutions of (S)-(+)-abscisic acid and blank treatments (plain water) were applied by spray to the aerial parts of the tomato plants at the rate of 20 mL per 6 plants. Plants were then placed in a transparent chamber with humidity controlled within the range of 40 to 60% relative humidity. Leaf transpiration rates were measured at 1, 2 and 3 days after treatment. Measurements were conducted using a LI-1600 Steady State Porometer (LI-Cor, Lincoln, Nebr.). Each day the transpiration rate of the plants of each treatment group was normalized to a percentage of the transpiration rate of untreated plants (plants sprayed with water only) in order to control for day-to-day variability in plant status caused by changes of environmental conditions such as light intensity and temperature. Data of each plant was also averaged over a 3-day period to balance the short term and long term effect of (S)-(+)-abscisic acid on tomato leaf transpiration as well as to reduce experimental variability.

[4] = test system: California Blackeye Pea (cowpea); assay: Phytotoxicity and growth after foliar application; assay type: in vivo; conditions: for % Leaf Area Damaged 3 days after treatment: monofoliate leaves
Experimental: Phytotoxicity is defined as damage to a plant caused by treatment with an externally applied chemical substance. Phytotoxicity caused by application of an agricultural chemical is considered highly undesirable (except in the case of herbicides). To test the relative safety of the compositions of the present invention, comprising an ammonium salt of (S)-(+)-abscisic acid, as compared to compositions of the prior art, comprising an ammonium salt of (R,S)-(±)-abscisic acid, plants were treated with solutions containing two different concentrations of the (S)-(+)-abscisic acid or with solutions containing (R,S)-(±)-abscisic acid at concentrations in which either the total concentration of (R,S)-(±)-abscisic acid was equal to the higher concentration of (S)-(+)-abscisic acid or in which the concentration of (S)-(+)-abscisic acid contained in the (R,S)-(±)-abscisic acid was equal to the higher treatment concentration of the pure (S)-(+)-abscisic acid. California Blackeye Pea (cowpea) seed was planted into 18 cell flats filled with Promix PGX in a greenhouse. When the plants had grown to a point where the monofoliate leaves were fully expanded and the first trifoliate leaves were emerging (18 days after planting) the plants were sprayed with 1.5 ml of treatment solution. After treatment the plants were held in the greenhouse and evaluated for damage to the monofoliate leaves and also for growth of the trifoliate leaves. The percentage of the monofoliate leaf area that was damaged was estimated three days after treatment, and monofoliate leaf abscission and trifoliate leaf development were determined on the fifth day after treatment.

CC(C=C[C@@]1(O)C(C)=CC(=O)CC1(C)C)=CC(=O)O [(S)-(+)-2-trans-,4-trans-isomer]
biological activity [1]: biologically inactive

CC1=CC(=O)CC(C)(C)[C@@]1(O)/C=C/C(C)=C\C(=O)O [(S)-(+)-abscisic acid, 2-cis-, 4-trans-(S)-(+)-abscisic acid]
solubility in hard water ([2]; hard water, compared with pure water): even less | solubility in propylene glycol ([2]; propylene glycol): poorly soluble | highest concentration achievable in water [2]: ≤ 3000 ppm | highest concentration achievable in water ([2]; listed as abscisic acid): about 3000 ppm | Transpiration rate (% of control), 3-Day Average ([3]; Table 1, 250 ppm spray): 87.02 % of control | Transpiration rate (% of control), Days after treatment 1 ([3]; Table 1, 250 ppm spray): 75.59 % of control | Transpiration rate (% of control), Days after treatment 2 ([3]; Table 1, 250 ppm spray): 89.83 % of control | Transpiration rate (% of control), Days after treatment 3 ([3]; Table 1, 250 ppm spray): 95.63 % of control | Transpiration rate (% of control), 3-Day Average ([3]; Table 2, 250 ppm spray): 87.02 % of control | Transpiration rate (% of control), Days after treatment 1 ([3]; Table 2, 250 ppm spray): 75.59 % of control | Transpiration rate (% of control), Days after treatment 2 ([3]; Table 2, 250 ppm spray): 89.83 % of control | Transpiration rate (% of control), Days after treatment 3 ([3]; Table 2, 250 ppm spray): 95.63 % of control | Transpiration rate (% of control), 3-Day Average ([3]; Table 3, 250 ppm spray): 80.78 % of control | Transpiration rate (% of control), Days after treatment 1 ([3]; Table 3, 250 ppm spray): 72.66 % of control | Transpiration rate (% of control), Days after treatment 2 ([3]; Table 3, 250 ppm spray): 76.18 % of control | Transpiration rate (% of control), Days after treatment 3 ([3]; Table 3, 250 ppm spray): 93.50 % of control | Transpiration rate (% of control), 3-Day Average ([3]; Table 4, 250 ppm spray): 83.21 % of control | Transpiration rate (% of control), Days after treatment 1 ([3]; Table 4, 250 ppm spray): 75.30 % of control | Transpiration rate (% of control), Days after treatment 2 ([3]; Table 4, 250 ppm spray): 83.65 % of control | Transpiration rate (% of control), Days after treatment 3 ([3]; Table 4, 250 ppm spray): 90.68 % of control | Transpiration rate (% of control), 3-Day Average ([3]; Table 5, 250 ppm spray): 69.00 % of control | Transpiration rate (% of control), Days after treatment 1 ([3]; Table 5, 250 ppm spray): 59.35 % of control | Transpiration rate (% of control), Days after treatment 2 ([3]; Table 5, 250 ppm spray): 71.02 % of control | Transpiration rate (% of control), Days after treatment 3 ([3]; Table 5, 250 ppm spray): 76.62 % of control | Transpiration rate (% of control), 3-Day Average ([3]; Table 7, 250 ppm spray): 78.21 % of control | Transpiration rate (% of control), Days after treatment 1 ([3]; Table 7, 250 ppm spray): 71.16 % of control | Transpiration rate (% of control), Days after treatment 2 ([3]; Table 7, 250 ppm spray): 75.23 % of control | Transpiration rate (% of control), Days after treatment 3 ([3]; Table 7, 250 ppm spray): 88.25 % of control | Transpiration rate (% of control), 3-Day Average ([3]; Table 8, 250 ppm spray): 78.21 % of control | Transpiration rate (% of control), Days after treatment 1 ([3]; Table 8, 250 ppm spray): 71.16 % of control | Transpiration rate (% of control), Days after treatment 2 ([3]; Table 8, 250 ppm spray): 75.23 % of control | Transpiration rate (% of control), Days after treatment 3 ([3]; Table 8, 250 ppm spray): 88.25 % of control

CC1=CC(=O)CC(C)(C)[C@]1(O)/C=C/C(C)=C\C(=O)O [(R)-(−)-abscisic acid]
biological activity [1]: biologically inactive

CC1=CC(=O)CC(C)(C)C1(O)/C=C/C(C)=C\C(=O)O.N (racemic) [(R,S)-(±)-abscisic acid ammonium salt]
Average Number of Abscised Monofoliate Leaves 5 days after treatment ([4]; 6250 ppm foliar spray): 1.7 | Average Number of New Trifoliate Leaves 5 days after treatment ([4]; 6250 ppm foliar spray): 0.0 | % Leaf Area Damaged 3 days after treatment ([4]; 6250 ppm foliar spray): 97% | Average Number of Abscised Monofoliate Leaves 5 days after treatment ([4]; 12500 ppm foliar spray): 2.0 | Average Number of New Trifoliate Leaves 5 days after treatment ([4]; 12500 ppm foliar spray): 0.0 | % Leaf Area Damaged 3 days after treatment ([4]; 12500 ppm foliar spray): 100% | relative phytotoxicity, (S)-(+)- vs (R,S)-(±)-abscisic acid salt ([4]; equal total dose or equal (S)-(+)-enantiomer dose): more phytotoxicity | Transpiration rate (% of control), 3-Day Average ([3]; Table 8, 250 ppm spray): 90.95 % of control | Transpiration rate (% of control), Days after treatment 1 ([3]; Table 8, 250 ppm spray): 90.26 % of control | Transpiration rate (% of control), Days after treatment 2 ([3]; Table 8, 250 ppm spray): 87.73 % of control | Transpiration rate (% of control), Days after treatment 3 ([3]; Table 8, 250 ppm spray): 94.86 % of control | Transpiration rate (% of control), 3-Day Average ([3]; Table 8, 500 ppm spray): 81.03 % of control | Transpiration rate (% of control), Days after treatment 1 ([3]; Table 8, 500 ppm spray): 77.53 % of control | Transpiration rate (% of control), Days after treatment 2 ([3]; Table 8, 500 ppm spray): 76.20 % of control | Transpiration rate (% of control), Days after treatment 3 ([3]; Table 8, 500 ppm spray): 89.36 % of control
